Common to all, as to assay type: in vivo
For assay [1], the system named is Blumeria graminis f. sp. hordei. Kind of assay: Fungicidal activity: Barley Powdery Mildew (ERYSGH). As to conditions: 100 ppm, 1 DP (1 Day Protectant). As to the method: Technical grades of materials were dissolved in acetone, which were then mixed with nine volumes of water containing 110 ppm Triton X-100. The fungicide solutions were applied onto wheat seedlings using an automated booth sprayer to run-off. All sprayed plants were allowed to air dry prior to further handling. All fungicides were evaluated using the aforementioned method for their activity vs. all target diseases, unless stated otherwise. Wheat leaf blotch and brown rust activity were also evaluated using track spray applications, in which case the fungicides were formulated as EC formulations, containing 0.1% Trycol 5941 in the spray solutions. Wheat plants (variety Yuma) were grown from seed in a greenhouse in 50% mineral soil/50% soil-less Metro mix until the first leaf was fully emerged, with 7-10 seedlings per pot. These plants were inoculated with an aqueous spore suspension of Septoria tritici either prior to or after fungicide treatments. After inoculation the plants were kept in 100% relative humidity (one day in a dark dew chamber followed by two to three days in a lighted dew chamber at 20° C.) to permit spores to germinate and infect the leaf. The plants were then transferred to a greenhouse set at 20° C. for disease to develop. When disease symptoms were fully expressed on the 1st leaves of untreated plants, infection levels were assessed on a scale of 0 to 100 percent disease severity. Percent disease control was calculated using the ratio of disease severity on treated plants relative to untreated plants. Evaluation of Fungicidal Activity: Barley Powdery Mildew (Blumeria graminis f. Sp. hordei; Synonym: Erysiphe graminis f. Sp. hordei; Bayer Code […]) Barley seedlings (variety Harrington) were propagated in soil-less Metro mix, with each pot having 8 to 12 plants, and used in the test when first leaf was fully emerged. Test plants were inoculated by dusting with infected stock plants 24 hr after fungicide treatments. After inoculation the plants were kept in a greenhouse set at 20° C. for disease to develop. Fungicide formulation, application and disease assessment on the sprayed leaves followed the procedures as described in the Example A.

The subject of assay [2] is Mycosphaerella graminicola; Anamorph: Septoria tritici. Kind of assay: Fungicidal activity: Leaf Blotch of Wheat (SEPTTR). Conditions: Zymoseptoria tritici, wheat leaf blotch; for pest or weed control at 100 µg/mL: High Volume (100 ppm); for pest or weed control at 121.5 g/ha: Low Volume (121.5 g/H). The gist of the method: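 Compounds were dissolved in acetone, diluted with nine volumes of water containing 110 ppm Triton X-100, and sprayed to run-off on first-leaf Yuma wheat seedlings inoculated with Septoria tritici spores before or after treatment. Plants were held in a dew chamber, then a 20° C. greenhouse. Percent control was derived from disease severity relative to untreated plants.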

For assay [3], the system named is Puccinia triticina. Kind of assay: Fungicidal activity: Wheat Brown Rust (PUCCRT). Conditions: for pest or weed control at 100 µg/mL: High Volume (100 ppm); for pest or weed control at 121.5 g/ha: Low Volume (121.5 g/H). The gist of the method: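 Percent control of brown rust was derived from 0-100% severity on treated versus untreated first leaves. Yuma wheat seedlings were spray-treated to run-off (acetone/water, Triton X-100) and inoculated with P. triticina spores before or after treatment, then held overnight in dark dew at 22° C and moved to a 24° C greenhouse.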

Where [4] appears, read: 24 h, 1 Day Protectant, read-out: SEPTTR 1 DP disease control.
[5] abbreviates: 72 h, 3 Day Curative, read-out: SEPTTR 3 DC disease control.
The mark [6] stands for this setting: 24 h, 1 Day Protectant, read-out: PUCCRT 1 DP disease control.
Where [7] appears, read: 72 h, 3 Day Curative, read-out: PUCCRT 3 DC disease control.

Like-named read-outs stand apart in the source and are kept apart here. Where only a bound is given, the exact number is not on record here.

With `CCCC[C@@H]1[C@@H](Cc2ccccc2)COC[C@H](NC(=O)c2nccc(OC)c2OCOC(=O)C(C)C)C(=O)O[C@H]1C` [compound 1], the “ERYSGH disease control rating” value in assay [1] is given as “A (>70)”. Also, the pest or weed control at 100 µg/mL in assay [2] (setting [4]), in assay [2] (setting [5]), in assay [3] (setting [6]) and in assay [3] (setting [7]) was greater than 70% in each case. Moreover, the pest or weed control at 121.5 g/ha in assay [2] (setting [4]) was greater than 70%; in assay [2] (setting [5]), greater than 70%; in assay [3] (setting [6]) it was greater than 70%; in assay [3] (setting [7]), less than 70%.
For the compound `COc1ccnc(C(=O)N[C@H]2COC[C@H](CC3CC3)[C@@H](c3ccccc3)[C@H](C)OC2=O)c1OC(C)=O` [compound 100], in assay [1], the “ERYSGH disease control rating” value is reported as “A (>70)”. In addition, the pest or weed control at 121.5 g/ha in assay [2] (setting [4]), in assay [2] (setting [5]), in assay [3] (setting [6]) and in assay [3] (setting [7]) was greater than 70% each time.
On to `CCCC[C@@H]1[C@@H](Cc2ccc(C(F)(F)F)cc2)COC[C@H](NC(=O)c2nccc(OC)c2OCOC(C)=O)C(=O)O[C@H]1C` [compound 16], for which the “ERYSGH disease control rating” value in assay [1] was “A (>70)”. The pest or weed control at 121.5 g/ha in assay [2] (setting [4]), in assay [2] (setting [5]), in assay [3] (setting [6]) and in assay [3] (setting [7]) was greater than 70% throughout.
`COc1ccnc(C(=O)N[C@H]2COC[C@H](c3ccccc3)[C@@H](c3ccccc3)[C@H](C)OC2=O)c1OCOC(C)=O` [compound 7]: the “ERYSGH disease control rating” value in assay [1] is “A (>70)”. The pest or weed control at 100 µg/mL in assay [2] (setting [4]), in assay [2] (setting [5]), in assay [3] (setting [6]) and in assay [3] (setting [7]) was greater than 70% each time. In addition, the pest or weed control at 121.5 g/ha in assay [2] (setting [4]), in assay [2] (setting [5]), in assay [3] (setting [6]) and in assay [3] (setting [7]) was greater than 70% in each case.
In the case of `COc1ccnc(C(=O)N[C@H]2COC[C@H](Cc3ccccc3)[C@@H](Cc3ccccc3)[C@H](C)OC2=O)c1OC(C)=O` [compound 27], in assay [1], the “ERYSGH disease control rating” value was “B (≤70)”. In addition, the pest or weed control at 121.5 g/ha in assay [2] (setting [4]), in assay [2] (setting [5]), in assay [3] (setting [6]) and in assay [3] (setting [7]) was greater than 70% each time.
With `COc1ccnc(C(=O)N[C@H]2COC[C@H](Cc3ccccc3)[C@@H](Cc3ccccc3)[C@H](C)OC2=O)c1OCOC(C)=O` [Cmpd. 3, ((2-(((3S,7R,8R,9S)-7,8-dibenzyl-9-methyl-2-oxo-1,5-dioxonan-3-yl)carbamoyl)-4-methoxypyridin-3-yl)oxy)methyl acetate], in assay [1], the “ERYSGH disease control rating” value is reported as “A (>70)”. The pest or weed control at 100 µg/mL in assay [2] (setting [4]) is greater than 70%; in assay [2] (setting [5]) it was greater than 70%; in assay [3] (setting [6]) it was greater than 70%; in assay [3] (setting [7]) it was less than 70%. The pest or weed control at 121.5 g/ha in assay [2] (setting [4]), in assay [2] (setting [5]), in assay [3] (setting [6]) and in assay [3] (setting [7]) was greater than 70% each time.

The values are drawn from patent US9955691B2, “Macrocyclic picolinamides as fungicides” (DOW AGROSCIENCES LLC, priority 2014, dated 2018).
